Measured values reported in patent US7829563B2, “Aminoamides as orexin antagonists” (Hoffmann-La Roche Inc., priority 2007, dated 2010).

Target: T1, human orexin-2 (hOX2) receptors (Homo sapiens, UniProt O43614)
T1 construct: expressed in transfected cells
T1 sequence (O43614 1-444): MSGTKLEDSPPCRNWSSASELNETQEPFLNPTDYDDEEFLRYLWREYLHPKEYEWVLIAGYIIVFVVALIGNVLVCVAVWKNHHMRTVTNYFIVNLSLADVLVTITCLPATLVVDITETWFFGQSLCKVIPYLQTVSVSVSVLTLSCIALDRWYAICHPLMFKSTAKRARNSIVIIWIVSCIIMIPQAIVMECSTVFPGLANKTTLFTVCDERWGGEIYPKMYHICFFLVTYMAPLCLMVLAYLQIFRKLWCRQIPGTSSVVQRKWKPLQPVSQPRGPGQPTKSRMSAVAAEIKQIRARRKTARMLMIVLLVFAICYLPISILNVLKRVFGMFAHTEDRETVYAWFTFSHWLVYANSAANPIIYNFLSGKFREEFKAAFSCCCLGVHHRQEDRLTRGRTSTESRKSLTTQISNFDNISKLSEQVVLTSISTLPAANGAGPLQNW
Assay: Intracellular Ca2+ mobilization assay (FLIPR), antagonism of orexin-A
Format: cell-based
Settings: CHO(dHFr−) cells stably expressing hOX2; orexin-A at EC80 as agonist; Kb=IC50/(1+[A]/EC50); read-out: Kb (μM) OX2R (human)
Procedure: R^7 and R^8 in scheme 5 are hydrogen, and the other substituents are as described above The compounds were investigated in accordance with the test given hereinafter. Intracellular Ca^2+ Mobilization Assay
The Chinese Hamster Ovary (dHFr−) mutant cell line stably expressing human orexin-1 (hOX1) or human orexin-2 (hOX2) receptors were maintained in Dulbecco's Modified Eagle Medium (1×) with GlutaMax™ 1, 4500 mg/L D-Glucose and Sodium Pyruvate (Catalog No. 31966-021, Invitrogen, Carlsbad, Calif.), 5% dialyzed fetal calf serum (Catalog No. 26400-044), 100 μg/ml penicillin and 100 μg/ml streptomycin. The cells were seeded at 5×10^4 cells/well in the poly-D-lysine treated, 96-well, black/clear-bottomed plates (Catalog No. BD356640, BD Biosciences, Palo Alto, Calif.). 24 h later, the cells were loaded for 1 h at 37° C. with 4 μM Flou-4 acetoxymethyl ester (Catalog No. F-14202, Molecular Probes, Eugene, Oreg.) in FLIPR buffer (1×HBSS, 20 mM HEPES, 2.5 mM Probenecid). Hanks' Balanced Salt Solution (HBSS) (10×) (catalog No. 14065-049) and HEPES (1M) (catalog No. 15630-056) were purchased from Invitrogen, Carlsbad, Calif. Probenecid (250 mM) (catalog No. P8761) was from Sigma, Buchs, Switzerland. The cells were washed five times with FLIPR buffer to remove excess dye and intracellular calcium mobilization, [Ca^2+]i were measured using a Fluorometric Imaging Plate Reader (FLIPR-96, Molecular Devices, Menlo Park, Calif.) as described previously (Malherbe et al., Mol. Pharmacol., 64, 823-832, 2003). Orexin A (catalog No. 1455, Toris Cookson Ltd, Bristol, UK) was used as agonist. Orexin A ([…] stock solution in DMSO) was diluted in FLIPR buffer+0.1% BSA. The EC50 and EC80 values of orexin-A were measured daily from standard agonist concentration-response curves in CHO(dHFr−)-OX1R and —OX2R cell lines. All compounds were dissolved in 100% DMSO. Inhibition curves were determined by addition of 11 concentrations (0.0001-10 μM) of inhibitory compounds and using EC80 value of orexin-A as agonist (a concentration which gave 80% of max agonist response, determined daily). The antagonists were applied 25 min (incubation at 37° C.) before the application of the agonist. Responses were measured as peak increase in fluorescence minus basal, normalized to the maximal stimulatory effect induced by EC80 value of orexin-A or orexin-B. Inhibition curves were fitted according to the Hill equation: y=100/(1+(x/IC50)^nH), where nH=slope factor using Excel-fit 4 software (Microsoft). Kb values were calculated according to the following equation Kb=IC50/(1+[A]/EC50) where A is the concentration of agonist added which is very close to agonist EC80 value, and IC50 and EC50 values were derived from the antagonist inhibition and orexin-A or B agonist curves, respectively.

SMILES	Kb [µM]
CNC(=O)[C@H](N[C@@H](CCc1ccc(C(F)(F)F)nc1)c1ccc2c(c1)CCCC2)c1ccc(F)cc1 (racemic) [Example 57, (S,R)-2-(4-Fluoro-phenyl)-N-methyl-2-[(R,S)-1-(5,6,7,8-tetrahydro-naphthalen-2-yl)-3-(6-trifluoromethyl-pyridin-3-yl)-propylamino]-acetamide]	0.0093
CNC(=O)[C@H](N[C@@H](CCc1ccc(Cl)nc1)c1ccc(OC(F)F)c(OC(F)F)c1)c1ccccc1 (racemic) [Example 296, (S,R)-2-[(R,S)-1-(3,4-Bis-difluoromethoxy-phenyl)-3-(6-chloro-pyridin-3-yl)-propylamino]-N-methyl-2-phenyl-acetamide]	0.013
CNC(=O)[C@H](N[C@H](CCc1ccc(Cl)cc1)c1ccc(OC)c(OC)c1Cl)c1ccccc1 (racemic) [Example 41, (S,R)-2-[(S,R)-1-(2-Chloro-3,4-dimethoxy-phenyl)-3-(4-chloro-phenyl)-propylamino]-N-methyl-2-phenyl-acetamide]	0.0167
CNC(=O)[C@H](N[C@@H](CCc1cccc(C(F)(F)F)c1)c1ccc(OC)c(OC)c1)c1ccccc1 (racemic) [Example 321, (R,S)-2-[(S,R)-1-(3,4-Dimethoxy-phenyl)-3-(3-trifluoromethyl-phenyl)-propylamino]-N-methyl-2-phenyl-acetamide]	0.0028
CNC(=O)[C@H](N[C@@H](CCc1ccc(C(F)(F)F)nc1)c1ccc(F)c(OC)c1)c1ccccc1 (racemic) [Example 232, (S,R)-2-[(R,S)-1-(4-Fluoro-3-methoxy-phenyl)-3-(6-trifluoromethyl-pyridin-3-yl)-propylamino]-N-methyl-2-phenyl-acetamide]	0.0085
CNC(=O)[C@H](N[C@H](CCc1ccc(C(F)(F)F)nc1)c1ccc(Cl)c(C)c1)c1ccccc1 (racemic) [Example 243, (S,R)-2-[(S,R)-1-(4-Chloro-3-methyl-phenyl)-3-(6-trifluoromethyl-pyridin-3-yl)-propylamino]-N-methyl-2-phenyl-acetamide]	0.0122
CCNC(=O)[C@H](NC(CCc1ccc(C(F)(F)F)cc1)c1ccc(OC)c(OC)c1)c1ccccc1 (single isomer, unassigned) [Example 13, (R)-2-[(R or S)-1-(3,4-Dimethoxy-phenyl)-3-(4-trifluoromethyl-phenyl)-propylamino]-N-ethyl-2-phenyl-acetamide]	0.0026
CNC(=O)[C@H](N[C@@H](CCc1ccc(C(F)(F)F)cc1)c1ccc2c(c1)OCCN2C)c1ccccc1 (racemic) [Example 78, (S,R)—N-Methyl-2-[(R,S)-1-(4-methyl-3,4-dihydro-2H-benzo[1,4]oxazin-7-yl)-3-(4-trifluoromethyl-phenyl)-propylamino]-2-phenyl-acetamide]	0.0127
CNC(=O)[C@H](N[C@@H](CCc1ccc(C(F)(F)F)cc1)c1ccc(OC)c(OC)c1)c1ccc(F)cc1 [Example 95, (R)-2-[(S)-1-(3,4-Dimethoxy-phenyl)-3-(4-trifluoromethyl-phenyl)-propylamino]-2-(4-fluoro-phenyl)-N-methyl-acetamide]	0.0086

Other lines, results leading:

Kb [µM]	SMILES
0.0034	CNC(=O)[C@H](N[C@@H](CCc1ccc(C(F)(F)F)nc1)c1ccc(C)c(OC)c1)c1ccccc1 (racemic) [Example 253, (S,R)-2-[(R,S)-1-(3-Methoxy-4-methyl-phenyl)-3-(6-trifluoromethyl-pyridin-3-yl)-propylamino]-N-methyl-2-phenyl-acetamide]
0.0123	CNC(=O)[C@H](N[C@@H](CCc1ccc(C(F)(F)F)cc1)c1cc(C)ccc1F)c1ccc(F)cc1 [Example 124, (R)-2-[(S)-1-(2-Fluoro-5-methyl-phenyl)-3-(4-trifluoromethyl-phenyl)-propylamino]-2-(4-fluoro-phenyl)-N-methyl-acetamide]
0.003	CNC(=O)[C@H](N[C@@H](CCc1ccc(C(F)(F)F)cc1)c1ccc(OC)c(OC)c1)c1ccccc1 (racemic) [Example 142, (S,R)-2-[(R,S)-1-(3,4-Dimethoxy-phenyl)-3-(4-trifluoromethyl-phenyl)-propylamino]-N-methyl-2-phenyl-acetamide]
0.017	CNC(=O)C(NC(CCc1ccc(C(F)(F)F)cc1)c1sc(C)nc1C)c1ccccc1 (centres unmarked) [Example 93, 2-[1-(2,4-Dimethyl-thiazol-5-yl)-3-(4-trifluoromethyl-phenyl)-propylamino]-N-methyl-2-phenyl-acetamide]
0.0142	CNC(=O)[C@H](NC(CCc1ccc(C(F)(F)F)cc1)c1ccc(OC)c(OC)c1)c1ccccc1 (single isomer, unassigned) [Example 7, (R)-2-[(S or R)-1-(3,4-Dimethoxy-phenyl)-3-(4-trifluoromethyl-phenyl)-propylamino]-N-methyl-2-phenyl-acetamide]
0.0049	CNC(=O)[C@H](N[C@@H](CCc1ccc(C(F)(F)F)cc1)c1ccc(OC)c(OC)c1)c1ccc(F)cc1 (racemic) [Example 34, (S,R)-2-[(R,S)-1-(3,4-Dimethoxy-phenyl)-3-(4-trifluoromethyl-phenyl)-propylamino]-2-(4-fluoro-phenyl)-N-methyl-acetamide]
0.0153	CNC(=O)[C@H](N[C@@H](CCc1cnc(Cl)cn1)c1ccc(OC(F)F)c(OC(F)F)c1)c1ccccc1 (racemic) [Example 297, (S,R)-2-[(R,S)-1-(3,4-Bis-difluoromethoxy-phenyl)-3-(5-chloro-pyrazin-2-yl)-propylamino]-N-methyl-2-phenyl-acetamide]
0.0089	CNC(=O)[C@H](N[C@@H](CCc1ccc(C(F)(F)F)cc1)c1ccc2c(c1)CCCO2)c1ccccc1 [Example 113, (R)-2-[(S)-1-Chroman-6-yl-3-(4-trifluoromethyl-phenyl)-propylamino]-N-methyl-2-phenyl-acetamide]
0.0014	CNC(=O)[C@H](N[C@@H](CCc1ccc(Cl)cc1)c1ccc(OC)c(OC)c1)c1ccccc1 (single isomer, unassigned) [Example 140]
0.0018	CNC(=O)[C@H](N[C@@H](CCc1ccc(Cl)cc1)c1ccc2c(c1)CCO2)c1ccccc1 [Example 96, (R)-2-[(S)-3-(4-Chloro-phenyl)-1-(2,3-dihydro-benzofuran-5-yl)-propylamino]-N-methyl-2-phenyl-acetamide]
0.0022	CNC(=O)[C@H](N[C@@H](CCc1ccc(C(F)(F)F)nc1)c1ccc(C)c(C)c1)c1ccccc1 (racemic) [Example 251, (S,R)-2-[(R,S)-1-(3,4-Dimethyl-phenyl)-3-(6-trifluoromethyl-pyridin-3-yl)-propylamino]-N-methyl-2-phenyl-acetamide]
0.0063	CNC(=O)[C@H](N[C@@H](CCc1ccc(Cl)cn1)c1ccc(OC(F)F)c(OC(F)F)c1)c1ccccc1 (racemic) [Example 306, (S,R)-2-[(R,S)-1-(3,4-Bis-difluoromethoxy-phenyl)-3-(5-chloro-pyridin-2-yl)-propylamino]-N-methyl-2-phenyl-acetamide]
0.0079	CNC(=O)[C@H](N[C@@H](CCc1ccc(C(F)(F)F)cc1)c1cccc(C)n1)c1ccccc1 (racemic) [Example 207, (S,R)—N-Methyl-2-[(R,S)-1-(6-methyl-pyridin-2-yl)-3-(4-trifluoromethyl-phenyl)-propylamino]-2-phenyl-acetamide]
0.0172	CNC(=O)C(NC(CCc1ccc(C)nc1)c1ccc(F)c(C)c1)c1ccccc1 (mixture of isomers) [Example 258, 2-[1-(4-Fluoro-3-methyl-phenyl)-3-(6-methyl-pyridin-3-yl)-propylamino]-N-methyl-2-phenyl-acetamide]
